Laboratory results published in ChEMBL document CHEMBL1123334, “4-Amino-6-chloro-2-piperazinopyrimidines with selective affinity for alpha 2-adrenoceptors” (J Med Chem, 1986).

How the values were obtained:
[1] = biological target: T1, Adrenergic receptor alpha-1 (Rattus norvegicus, UniProt P15823+P23944+P43140); assay: In vitro binding affinity was measured as the inhibition of [3H]WB-4101 binding to alpha-1 adrenergic receptor of rat cortical membranes; format: cell membranes, Membrane
T1 sequence (P15823 whole entry): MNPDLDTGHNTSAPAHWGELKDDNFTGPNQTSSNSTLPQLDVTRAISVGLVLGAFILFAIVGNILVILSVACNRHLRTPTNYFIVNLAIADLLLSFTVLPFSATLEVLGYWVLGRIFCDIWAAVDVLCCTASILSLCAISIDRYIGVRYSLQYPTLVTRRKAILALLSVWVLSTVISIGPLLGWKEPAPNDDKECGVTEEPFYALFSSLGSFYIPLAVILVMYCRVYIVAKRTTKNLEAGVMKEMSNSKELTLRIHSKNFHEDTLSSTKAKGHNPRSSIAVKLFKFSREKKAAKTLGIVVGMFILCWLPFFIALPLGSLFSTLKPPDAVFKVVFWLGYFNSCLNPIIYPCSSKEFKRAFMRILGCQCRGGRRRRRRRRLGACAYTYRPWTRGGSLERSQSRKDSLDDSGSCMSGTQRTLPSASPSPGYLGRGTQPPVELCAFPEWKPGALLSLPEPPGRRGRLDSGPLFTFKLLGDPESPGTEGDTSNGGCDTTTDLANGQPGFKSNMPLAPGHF
T1 sequence (P23944 whole entry): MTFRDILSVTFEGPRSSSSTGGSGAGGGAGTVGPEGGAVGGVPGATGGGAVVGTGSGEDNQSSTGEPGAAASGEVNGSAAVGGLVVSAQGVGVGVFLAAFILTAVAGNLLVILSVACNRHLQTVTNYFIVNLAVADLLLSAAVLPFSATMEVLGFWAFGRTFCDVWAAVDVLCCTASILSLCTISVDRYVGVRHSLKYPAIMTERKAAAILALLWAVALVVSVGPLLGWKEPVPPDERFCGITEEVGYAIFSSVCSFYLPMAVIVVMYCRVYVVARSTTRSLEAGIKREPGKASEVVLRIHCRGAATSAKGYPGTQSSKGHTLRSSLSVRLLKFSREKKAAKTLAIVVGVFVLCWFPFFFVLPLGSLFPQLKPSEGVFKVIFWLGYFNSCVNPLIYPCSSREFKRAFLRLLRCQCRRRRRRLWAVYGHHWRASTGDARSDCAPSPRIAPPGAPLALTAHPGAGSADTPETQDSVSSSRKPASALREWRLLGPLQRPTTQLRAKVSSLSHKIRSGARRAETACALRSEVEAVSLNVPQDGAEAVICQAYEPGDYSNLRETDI
T1 sequence (P43140 whole entry): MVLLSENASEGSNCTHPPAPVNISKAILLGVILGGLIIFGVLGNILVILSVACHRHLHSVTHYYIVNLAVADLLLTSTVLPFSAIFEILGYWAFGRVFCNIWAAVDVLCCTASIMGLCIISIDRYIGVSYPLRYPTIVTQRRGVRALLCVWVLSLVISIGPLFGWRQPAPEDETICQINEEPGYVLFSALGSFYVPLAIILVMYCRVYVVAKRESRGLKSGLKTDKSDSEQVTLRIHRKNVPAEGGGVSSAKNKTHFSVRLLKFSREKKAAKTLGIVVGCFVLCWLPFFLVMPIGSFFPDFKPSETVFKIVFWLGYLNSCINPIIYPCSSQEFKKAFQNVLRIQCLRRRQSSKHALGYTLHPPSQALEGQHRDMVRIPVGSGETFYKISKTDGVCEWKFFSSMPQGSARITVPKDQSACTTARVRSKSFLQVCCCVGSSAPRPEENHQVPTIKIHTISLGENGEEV

[2] = biological target: T2, Adrenergic receptor alpha-2 (Rattus norvegicus, UniProt P22086+P19328+P22909)
T2 sequence (P22086 whole entry): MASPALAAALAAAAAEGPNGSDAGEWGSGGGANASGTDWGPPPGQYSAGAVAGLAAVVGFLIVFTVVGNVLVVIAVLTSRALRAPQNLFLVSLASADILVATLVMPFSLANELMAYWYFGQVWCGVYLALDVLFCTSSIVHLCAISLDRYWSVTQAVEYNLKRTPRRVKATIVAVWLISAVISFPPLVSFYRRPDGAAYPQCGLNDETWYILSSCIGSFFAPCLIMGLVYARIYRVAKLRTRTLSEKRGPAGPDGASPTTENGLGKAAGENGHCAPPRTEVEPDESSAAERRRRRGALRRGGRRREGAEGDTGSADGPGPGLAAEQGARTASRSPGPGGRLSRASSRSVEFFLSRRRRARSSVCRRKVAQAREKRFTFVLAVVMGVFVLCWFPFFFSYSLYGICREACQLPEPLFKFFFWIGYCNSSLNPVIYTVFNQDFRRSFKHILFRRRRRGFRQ
T2 sequence (P19328 whole entry): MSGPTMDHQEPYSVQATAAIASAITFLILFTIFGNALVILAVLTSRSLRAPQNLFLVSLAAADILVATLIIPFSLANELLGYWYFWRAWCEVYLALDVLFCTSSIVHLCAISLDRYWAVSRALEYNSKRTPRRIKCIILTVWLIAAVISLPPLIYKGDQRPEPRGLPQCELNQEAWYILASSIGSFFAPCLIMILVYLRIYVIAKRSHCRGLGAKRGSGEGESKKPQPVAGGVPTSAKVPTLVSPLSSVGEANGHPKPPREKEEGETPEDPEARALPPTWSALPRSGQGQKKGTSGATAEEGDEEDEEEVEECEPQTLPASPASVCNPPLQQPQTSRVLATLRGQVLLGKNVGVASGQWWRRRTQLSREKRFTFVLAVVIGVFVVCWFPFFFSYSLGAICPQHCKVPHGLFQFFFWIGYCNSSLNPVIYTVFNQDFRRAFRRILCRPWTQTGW
T2 sequence (P22909 whole entry): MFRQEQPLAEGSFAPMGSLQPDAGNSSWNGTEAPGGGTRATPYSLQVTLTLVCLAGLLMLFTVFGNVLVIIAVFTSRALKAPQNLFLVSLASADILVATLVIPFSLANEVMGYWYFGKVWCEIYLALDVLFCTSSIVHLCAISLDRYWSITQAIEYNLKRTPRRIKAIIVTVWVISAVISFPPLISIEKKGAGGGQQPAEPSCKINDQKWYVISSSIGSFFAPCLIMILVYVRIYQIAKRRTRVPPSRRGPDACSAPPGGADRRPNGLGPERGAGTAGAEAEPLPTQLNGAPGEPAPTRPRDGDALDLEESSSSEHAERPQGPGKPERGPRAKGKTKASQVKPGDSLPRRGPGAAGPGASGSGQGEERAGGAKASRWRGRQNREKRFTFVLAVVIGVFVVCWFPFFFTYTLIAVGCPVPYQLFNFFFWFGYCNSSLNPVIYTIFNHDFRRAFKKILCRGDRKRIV

[3] = biological target: T2, Adrenergic receptor alpha-2; assay: Inhibition of [3H]idazoxan binding to alpha-2 adrenergic receptor of rat cortical membranes; format: cell membranes, Membrane
Dopamine receptor = assay: In vitro binding affinity to Dopamine receptors of rat striatal membranes by [3H]spiroperidol displacement.
[4] = biological target: T2, Adrenergic receptor alpha-2; assay: In vitro binding affinity was measured as the inhibition of [3H]idazoxan to alpha-2 adrenergic receptors of rat cortical membranes; format: cell membranes, Membrane

CNc1nc(N2CCN(C)CC2)nc(Cl)c1SC
Ki [1]: 1800 nM | Ki [2]: 360 nM

CNc1nc(Cl)c(SC)c(N2CCN(C)CC2)n1 [MEZILAMINE]
Ki [1]: 91 nM | Ki [3]: 12 nM | Ki [2]: 9 nM

Cc1c(Cl)nc(N2CCNCC2)nc1NC(C)C
Ki [1]: 860 nM | Ki [3]: 13 nM | Ki [2]: 6 nM | Ki (Dopamine receptor): 2900 nM

CC(C)Nc1cc(Cl)nc(N2CCN(C)CC2)n1
Ki [1]: > 180 nM | Ki [4]: 200 nM | Ki [2]: 130 nM

CNc1nc(N2CCN(C)CC2)nc(Cl)c1Cl
Ki [1]: 4 nM | Ki [2]: 44 nM | Ki (Dopamine receptor): 1200 nM

CSc1c(Cl)nc(N2CCN(C)CC2)nc1NC1CCCCC1
Ki [1]: 240 nM | Ki [2]: 290 nM

CNc1cc(Cl)nc(N2CCN(C)CC2)n1
Ki [1]: 280 nM | Ki [3]: 100 nM | Ki [2]: 50 nM | Ki (Dopamine receptor): 630 nM

CSc1c(Cl)nc(N2CCN(C)CC2)nc1NC(C)(C)C
Ki [1]: 450 nM | Ki [2]: 180 nM | Ki (Dopamine receptor): 920 nM

CSc1c(N)nc(N2CCN(C)CC2)nc1Cl
Ki [1]: 820 nM | Ki [2]: 620 nM | Ki (Dopamine receptor): 1000 nM

CSc1c(Cl)nc(N2CCN(C)CC2)nc1Nc1ccccc1
Ki [1]: 140 nM | Ki [3]: 500 nM | Ki [2]: 240 nM

CNc1nc(N2CCN(C)CC2)nc(Cl)c1Br
Ki [1]: 180 nM | Ki [2]: 150 nM | Ki (Dopamine receptor): 200 nM

CC(COc1ccccc1)N(CCCl)Cc1ccccc1 (stereo not drawn) [PHENOXYBENZAMINE]
Ki [1]: 1.8 nM | Ki (Dopamine receptor): 120 nM

COc1c(Cl)nc(N2CCN(C)CC2)nc1NC1CCCC1
Ki [1]: 1700 nM | Ki [3]: 29 nM | Ki [2]: 50 nM | Ki (Dopamine receptor): 670 nM

CCNc1nc(N2CCN(C)CC2)nc(Cl)c1SC
Ki [1]: 1800 nM | Ki [2]: 90 nM

CSc1c(Cl)nc(N2CCN(C)CC2)nc1NCc1ccccc1
Ki [1]: 100 nM | Ki [2]: 1500 nM | Ki (Dopamine receptor): 14 nM

CN1CCN(c2nc(N)c(Cl)c(Cl)n2)CC1
Ki [1]: 67 nM | Ki [2]: 50 nM

COC(=O)[C@@H]1[C@H]2C[C@H]3c4[nH]c5ccccc5c4CCN3C[C@@H]2CC[C@@H]1O [YOHIMBINE]
Ki (Dopamine receptor): 2000 nM

Clc1cccc(Cl)c1NC1=NCCN1 [CLONIDINE]
Ki (Dopamine receptor): > 4000 nM

CC(C)Nc1nc(N2CCN(C)CC2)nc(Cl)c1Br
Ki [1]: 290 nM | Ki [2]: 7 nM | Ki (Dopamine receptor): 480 nM

CSc1c(Cl)nc(N2CCN(C)CC2)nc1NCCc1ccccc1
Ki [1]: 180 nM | Ki [2]: 910 nM | Ki (Dopamine receptor): 1400 nM

CC(C)Nc1nc(N2CCNCC2)nc(Cl)c1Br
Ki [1]: 200 nM | Ki [3]: 28 nM | Ki [2]: 16 nM | Ki (Dopamine receptor): 880 nM

CNc1nc(N2CCN(C)CC2)nc(Cl)c1OC
Ki [1]: 1700 nM | Ki [2]: 150 nM

CSc1c(Cl)nc(N2CCNCC2)nc1NC(C)C
Ki [1]: 500 nM | Ki [3]: 62 nM | Ki [2]: 36 nM | Ki (Dopamine receptor): 3000 nM

CC(C)Nc1nc(N2CCN(C)CC2)nc(Cl)c1Cl
Ki [1]: 42 nM | Ki [4]: 14 nM | Ki [2]: 5 nM | Ki (Dopamine receptor): 2400 nM

Cc1c(Cl)nc(N2CCN(C)CC2)nc1NC(C)C
Ki [1]: 200 nM | Ki [2]: 16 nM | Ki (Dopamine receptor): 880 nM

CSc1c(Cl)nc(N2CCN(C)CC2)nc1NC1CCCC1
Ki [1]: 76 nM | Ki [2]: 22 nM | Ki (Dopamine receptor): 1200 nM

COc1c(Cl)nc(N2CCN(C)CC2)nc1NC(C)C
Ki [1]: 310 nM | Ki [2]: 50 nM

CN1CCN(c2nc(Cl)c(Cl)c(NC3CCCC3)n2)CC1
Ki [1]: 240 nM | Ki [4]: 97 nM | Ki [2]: 120 nM

CN1CCN(c2nc(Cl)c(Br)c(NC3CCCC3)n2)CC1
Ki [1]: 250 nM | Ki [3]: 230 nM | Ki [2]: 140 nM

CSc1c(Cl)nc(N2CCN(C)CC2)nc1NC(C)C
Ki [1]: 360 nM | Ki [2]: 26 nM | Ki (Dopamine receptor): 640 nM

CN1CCN(c2nc(N)c(Br)c(Cl)n2)CC1
Ki [1]: 820 nM | Ki [2]: 1600 nM | Ki (Dopamine receptor): 10000 nM
